From patent US4350700A, “Pharmaceutical composition containing 1,3,5-substituted biuret compound” (Taiho Pharmaceutical Company, Limited, priority 1979, dated 1982) come the findings set out here.

The term LD50 denotes the dose at which mortality reaches 50%. One may read the ED50 as the midpoint of the dose-response relation.

Data set [1] can be described thus: Acute toxicity (oral, general symptom and death observed for 7 days). The class given is in vivo, mice (ddy strain, male). Conditions: mouse, in vivo; oral, mice, 7 days observation (Δ values); read-out: Acute toxicity, 50% lethal dose LD50. In outline: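 Male ddy mice (20-25 g), fasted overnight, dosed orally with compound suspended in 0.25% carboxymethylcellulose; symptoms and deaths observed for 7 days. Lethal dose (mg/kg) derived from deaths/number tested; marked values are LD50.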

Data set [2] deals with 10% dry-yeast suspension-induced fever of rats. Kind of data set: Anti-pyretic activity (dry-yeast induced fever, febril index). Conditions: oral, febril index up to 4 hours after administration, dose not stated. The class given is in vivo, rats (Wistar strain, male). How it is done:
Next, several tests for determining the pharmacological properties, in that acute toxicity, anti-pyretic activity, analgesic activity and anti-inflammatory activity of the present 1,3,5-substituted biuret compounds of the formula (1) were conducted and the test results are shown in Table (2). In the tests, each compounds to be tested was used as a suspension in 0.25% carboxymethylcellulose solution. Methods for testing are explained as follows:
According to the method reported by Tanabe [Folia Pharmacologia Japonica, Vol. 73, pp. 803 (1977)], the Wistar strain of male rats (150-180 g body weight) were used as test animals. The rats were fasted overnight, and 1 ml/100 g (body weight) of 10% dry-yeast suspension were subcutaneously injected on the back of the rats. Five hours afte the injection, the test compound was administered orally, then the body temperature of the rat was measured time sequences. Anti-pyretic activity of the test compound was determined as the FI (febril index) by integrating pyrogenetic curve up to 4 hours after the administration of the test compound with time, and indicated as inhibitory ratio (%) shown by the following formula, [formula]

Data set [3] has as its system acetic acid-induced stretching symptom of mouse. Kind of data set: Analgesic activity, acetic acid-induced stretching method. The format is in vivo, mice (ddy strain, male). Conditions: for ED50: oral, mice (Δ values; range in parentheses), read-out: Analgesic activity, acetic acid-induced stretching method, 50% effective dose ED50. In outline:
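Overnight-fasted male ddy mice (20-25 g) dosed orally at 100 mg/kg (0.25% CMC suspension); 0.7% acetic acid given i.p. 1 h later and stretching observed. Values are % inhibition; some entries from other doses, or ED50 (mg/kg).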

For data set [4], the system named is pain reaction of the mouse caused by a clamp. Kind of data set: Analgesic activity, Haffner method. The class given is in vivo, mice (ddy strain, male). The following applies: for ED50: Mus musculus, oral, mice (Δ values; range in parentheses), read-out: Analgesic activity, Haffner method, 50% effective dose ED50; for Analgesic activity, Haffner method, inhibitory ratio: mice. In outline: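 Male ddy mice weighing 20-25 g were fasted overnight, then given the test compound orally as a suspension in 0.25% carboxymethylcellulose solution. Forty-five minutes later, a threshold subcutaneous dose of morphine hydrochloride (1.5-2.5 mg/kg body weight) was injected. Pain reactions to a clamp were then observed over 1 hour. Analgesia was expressed as an inhibitory ratio (%) and as a 50% effective dose, ED50 (mg/kg body weight).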

Data set [5] relates to carrageenin-induced inflammation of the hindpaw of the rat. Nature of the data set: Anti-inflammatory activity, acute carrageenin-induced inflammatory test. The format is in vivo, rats (Wistar strain, male). The following applies: Rattus norvegicus, read-out: Anti-inflammatory activity, inflammation inhibitory ratio. In outline: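 Fasted male Wistar rats (150-180 g) dosed orally with 100 mg/kg compound suspended in 0.25% carboxymethylcellulose; 1 h later 0.1 ml of 1% carrageenin injected subcutaneously into hindpaw. Paw volume tracked over time; activity expressed as inflammation inhibitory ratio (%) at 3 hours post-injection.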

Setting [6] is: 100 mg/kg oral, rats, 3 hours after carrageenin.
[7] abbreviates: po, read-out: Analgesic activity, acetic acid-induced stretching method, inhibitory ratio.

Where two headings read alike, the source gives them in different places.

For the molecule `CNC(=O)N(C)C(=O)Nc1ccccc1` [Compound No. 3, 1,3-dimethyl-5-phenylbiuret], the LD50 at 168 h in data set [1] was 1450 mg/kg. Further, the “Anti-pyretic activity, inhibitory ratio” value in data set [2] is 145%. Also, the values for the ED50 in data set [3] and in data set [4] were 35 mg/kg and 111 mg/kg, respectively. In data set [5] (setting [6]), the inhibition in vivo at 100 mg/kg is 88%.

As for `CNC(=O)N(C)C(=O)Nc1ccc(OC)cc1` [Compound No. 8, 1,3-Dimethyl-5-(4-methoxyphenyl)-biuret], the LD50 at 168 h in data set [1] came to 1440 mg/kg. The “Anti-pyretic activity, inhibitory ratio” value in data set [2] worked out at 110%. For the same molecule, the inhibition in vivo at 100 mg/kg in data set [3] (100 mg/kg oral, mice, read-out: Analgesic activity, acetic acid-induced stretching method, inhibitory ratio) is 87.5%; in data set [5] (setting [6]) it was 40%. For the same molecule, the “Analgesic activity, Haffner method, inhibitory ratio” value in data set [4] (100 mg/kg oral) is reported as 50%.

As to `CNC(=O)N(C)C(=O)Nc1ccccn1` [Compound No. 14, 1,3-dimethyl-5-(2-pyridyl)biuret], the LD50 at 168 h in data set [1] was determined as 656 mg/kg. In addition, the inhibition in vivo at 100 mg/kg in data set [3] (setting [7]) worked out at 62.5%; in data set [5] (setting [6]) it was 54%. The median effective dose (ED50) in data set [4] is 145 mg/kg.

Consider `CNC(=O)N(C)C(=O)Nc1cccnc1` [Compound No. 15, 1,3-Dimethyl-5-(3-pyridyl)-biuret], for which the LD50 at 168 h in data set [1] came out at 1100 mg/kg. In addition, the “Anti-pyretic activity, inhibitory ratio” value in data set [2] stood at 94%. The ED50 in data set [3] came out at 44 mg/kg. Further, the “Analgesic activity, Haffner method, inhibitory ratio” value in data set [4] (100 mg/kg oral) is listed as 62.5%. Besides, the inhibition in vivo at 100 mg/kg in data set [5] (setting [6]) was 37%.

For the molecule `CCNC(=O)N(C)C(=O)Nc1ccccc1` [Compound No. 31, 1-ethyl-3-methyl-5-phenylbiuret], in data set [1], the LD50 at 168 h is 1590 mg/kg. Further, the “Anti-pyretic activity, inhibitory ratio” value in data set [2] is reported as 149%. For the same molecule, the values for the ED50 in data set [3] and in data set [4] were 70 mg/kg and 105 mg/kg, respectively. Also, the inhibition in vivo at 100 mg/kg in data set [5] (setting [6]) was determined as 63%.

For the molecule `CCNC(=O)N(C)C(=O)Nc1cc(OC)c(OC)c(OC)c1` [Compound No. 37, 1-Ethyl-3-methyl-5-(3,4,5-trimethoxyphenyl)biuret], the LD50 at 168 h in data set [1] was 749 mg/kg. The “Anti-pyretic activity, inhibitory ratio” value in data set [2] worked out at 97%. For the same molecule, the inhibition in vivo at 100 mg/kg in data set [3] (setting [7]) turned out to be 75%. In addition, in data set [4], the ED50 was 46 mg/kg.

As to `CNC(=O)N(C)C(=O)Nc1ccc(Cl)cc1` [compound 6], in data set [1], the LD50 at 168 h was 1240 mg/kg. Further, the “Anti-pyretic activity, inhibitory ratio” value in data set [2] was determined as 72%. In data set [3], the ED50 is 40 mg/kg. For the same molecule, the “Analgesic activity, Haffner method, inhibitory ratio” value in data set [4] (100 mg/kg oral) is 50%. In data set [5] (po, 3 h), the inhibition in vivo at 100 mg/kg is 43%.

Regarding `CNC(=O)N(C)C(=O)Nc1ccc2c(c1)OCO2` [compound 9, 1,3-Dimethyl-5-(3,4-methylenedioxyphenyl)biuret], the LD50 at 168 h in data set [1] was 1080 mg/kg. Also, the “Anti-pyretic activity, inhibitory ratio” value in data set [2] amounted to 38%. For the same molecule, the inhibition in vivo at 100 mg/kg worked out at 87.5% in data set [3] (setting [7]) and 46% in data set [5] (setting [6]). For the same molecule, the “Analgesic activity, Haffner method, inhibitory ratio” value in data set [4] (100 mg/kg oral) came to 25%.

Regarding `CNC(=O)N(C)C(=O)Nc1ccncc1` [compound 16], the LD50 at 168 h in data set [1] was determined as 1100 mg/kg. Also, the inhibition in vivo at 100 mg/kg in data set [3] (setting [7]) stood at 62.5%; in data set [5] (setting [6]), 34%. Further, the “Analgesic activity, Haffner method, inhibitory ratio” value in data set [4] (100 mg/kg oral) is 25%.

Consider `CNC(=O)N(C)C(=O)Nc1ncccn1` [compound 19, 1,3-Dimethyl-5-(2-pyrimidinyl)biuret], for which the median lethal dose (LD50) at 168 h in data set [1] came to 1400 mg/kg. The “Anti-pyretic activity, inhibitory ratio” value in data set [2] was found to be 6%. In data set [3] (setting [7]), the inhibition in vivo at 100 mg/kg came out at 50%. Further, in data set [4] (100 mg/kg oral), the “Analgesic activity, Haffner method, inhibitory ratio” value turned out to be 37.5%.

For `CCNC(=O)NC(=O)Nc1ccc(OC)cc1` [compound 28, 1-Ethyl-5-(4-methoxyphenyl)biuret], the LD50 at 168 h in data set [1] was found to be 1600 mg/kg. Further, the inhibition in vivo at 200 mg/kg in data set [3] (setting [7]) was 37.5%; in data set [5] (200 mg/kg oral, rats, 3 hours after carrageenin), 75%. Besides, the “Analgesic activity, Haffner method, inhibitory ratio” value in data set [4] (200 mg/kg oral) is given as 37.5%.

Take `CCNC(=O)N(C)C(=O)Nc1ccc(OC)c(OC)c1` [compound 36, 1-Ethyl-3-methyl-5-(3,4-dimethoxyphenyl)biuret]: the median lethal dose (LD50) at 168 h in data set [1] is 833 mg/kg. The “Anti-pyretic activity, inhibitory ratio” value in data set [2] turned out to be 43%. Moreover, the inhibition in vivo at 100 mg/kg was found to be 50% in data set [3] (setting [7]) and 23% in data set [5] (po, 3 h). The “Analgesic activity, Haffner method, inhibitory ratio” value in data set [4] (100 mg/kg oral) is on record as 62.5%.

For `CCNC(=O)N(C)C(=O)Nc1cccs1` [compound 40], the LD50 at 168 h in data set [1] stood at 559 mg/kg. In data set [2], the “Anti-pyretic activity, inhibitory ratio” value is reported as 42%. Besides, the inhibition in vivo at 100 mg/kg in data set [3] (setting [7]) was found to be 75%; in data set [5] (po, 3 h) it was 24%. Further, in data set [4] (100 mg/kg oral), the “Analgesic activity, Haffner method, inhibitory ratio” value was 37.5%.

As for `C=CCNC(=O)NC(=O)Nc1ccccc1` [compound 44], in data set [1], the 50% lethal dose (LD50) at 168 h was determined as 1400 mg/kg. The inhibition in vivo at 100 mg/kg in data set [3] (setting [7]) stood at 62.5%; in data set [5] (po, 3 h), 33%. In addition, in data set [4] (100 mg/kg oral), the “Analgesic activity, Haffner method, inhibitory ratio” value was found to be 50%.
